In assay [1] the test system is primary patient-derived PDX204 pancreatic cancer cells. The experiment in a line: PDX204 organoid assay. Format: cell-based, human. How it is done:
Moreover, the anti-cancer effect of JTE-151 was determined in an organoid assay using pancreatic cancer cells derived from mice bearing primary patient-derived xenografts.

In a further assay the test system is Hmga2. The assay can be described thus: target engagement by Hmga2 immunofluorescence in KP^f/fC tumors. Format: in vivo, mouse. Particulars: mid-point of the treatment regimen. As for the experimental part:
FIGS. 20A-20D show target engagement following RORγ inhibition in vivo, related to FIGS. 5A-5X. FIGS. 20A and 20B: Tumor-bearing KP^f/fC mice 9.5 weeks of age were treated with vehicle or SR2211 for two weeks (midpoint), after which tumors were isolated, fixed, and analyzed for target engagement of Hmga2 in epithelial cells by immunofluorescence. Quantification of Hmga2-positive epithelial cells in vehicle or SR2211 treated tumors (FIG. 20A) representative images (FIG. 20B). FIGS. 20C and 20D: Tumor-bearing KP^f/fC mice were treated from 8 weeks of age to endpoint with either vehicle or SR2211. Quantification of Hmga2-positive epithelial cells in vehicle or SR2211 treated tumors (FIG. 20C), representative images (FIG. 20D). Four frames were analyzed per mouse, n=2-4 mice per condition, Hmga2 (red), Keratin (green). Data represented as mean+/−S.E.M. *p<0.05, **p<0.01, ***p<0.001 by Student's t-test or One-way ANOVA. Grubb's test (p=0.1), was used to remove an outlier from the midpoint SR2211 treated group.
Pancreatic cancer tissue from KP^f/fC mice was fixed in Z-fix (Anatech Ltd, Fisher Scientific) and paraffin embedded at the UCSD Histology and Immunohistochemistry Core at The Sanford Consortium for Regenerative Medicine according to standard protocols. 5 μm sections were obtained and deparaffinized in xylene. […]

The next assay relates to human PDAC cells. The assay can be described thus: human PDAC (FG) flank tumors in immunocompromised mice. Format: in vivo. Particulars: compared to vehicle-treatment. How it is done: Subcutaneous tumor dimensions were measured with calipers 1-2× weekly.
Assay [2] deals with primary patient-derived organoids. The experiment in a line: primary patient-derived organoids, SR2211. Format: cell-based, human. The settings on record: following SR2211 treatment. As for the experimental part:
Primary patient organoids were established and provided by Dr. Andrew Lowy. Briefly, patient-derived xenografts were digested for 1 hour at 37° C. in RPMI containing 2.5% FBS, 5 mg/ml Collagenase II, and 1.25 mg/ml Dispase II, then passaged through a […] mesh filter. Cells were plated at a density of 1.5×10^5 cells per 50 μl Matrigel. After domes were solidified, growth medium was added as follows: RPMI containing 50% Wnt3a conditioned media, 10% R-Spondinl-conditioned media, 2.5% FBS, 50 ng/ml EGF, 5 mg/ml Insulin, 12.5 ng/ml hydrocortisone, and 14 μM Rho Kinase Inhibitor. After establishment, organoids were passaged and maintained as previously described (Boj et al., 2015). Briefly, organoids were isolated using Cell Recovery Solution (Corning 354253), then dissociated into single cell suspensions with TrypLE Express (ThermoFisher 12604) supplemented with 25 μg/ml DNase I (Roche) and 14 μM Rho Kinase Inhibitor (Y-27632, Sigma). Cells were split 1:2 into 20 μl domes plated on pre-warmed 48 well plates. Domes were incubated at 37° C. for 5 min, then covered with human complete organoid feeding media (Boj et al., 2015) without Wnt3a-conditioned media. […] Organoids were grown in the presence of vehicle or SR2211 for 7 days, then imaged and quantified, n=3 independent wells plated per dose per treatment group. […] Organoids were counted and measured using ImageJ 1.51s software.

The subject of assay [3] is organoids derived from acinar tumors. The experiment in a line: acinar tumor organoids (Msi2-Cre^ER/LSL-Myc). Format: cell-based, mouse. The source says: A new Msi2-Cre^ER mouse model of aggressive pancreatic cancer was created, in which Cre is driven off of the Msi2 promoter and can be conditionally triggered by tamoxifen delivery. This Msi2-Cre^ER driver can be crossed into mice bearing distinct mutations such as Ras (leading to myeloproliferative neoplasia), p53, or Myc. When the Msi2-Cre^ER driver was crossed into an LSL-MyC^T58A model developed by Dr. Robert Wechsler-Reya at SBP/Rady, La Jolla, Calif. (Mollaoglu et al., 2017) (FIG. 79), it produced multiple cancer types including small cell lung cancer, choroid plexus tumors, and early stage kidney tumors.

Turning to `Cc1ccc(NC(=O)C[C@H](CCC(=O)O)c2noc([C@H]3C[C@@H](CC(C)(C)C)C3)c2C2CC2)c(Cl)c1` [JTE-151, (4S)-6-[(2-chloro-4-methylphenyl)amino]-4-{4-cyclopropyl-5-[cis-3-(2,2-dimethylpropyl)cyclobutyl]isoxazol-3-yl}-6-oxohexanoic acid], the organoid growth result in assay [1] (3 μM JTE-151 alone) and in assay [1] (3 μM JTE-151 in combination with 0.05 nM gemcitabine) was “inhibited” in each case.

`OC(c1ccc(-c2ccc(CN3CCN(Cc4ccncc4)CC3)cc2)c(F)c1)(C(F)(F)F)C(F)(F)F` [SR2211]: the “Hmga2 in pancreatic epithelial cells” value in the assay on Hmga2 is listed as “downregulated”. The “reduction in tumor growth” value in the assay on human PDAC cells is about 6 fold. Further, the “reduction in total organoid volume” value in assay [2] is about 300 fold. In addition, in assay [3] (3 μM or 6 μM SR2211), the organoid growth entry was “significantly reduced”. The sensitivity of organoids entry in assay [3] (acinar tumors) was “sensitive”.

(Values after US20220202811A1, “TREATMENT FOR RETINOIC ACID RECEPTOR-RELATED ORPHAN RECEPTOR Ɣ (RORƔ)-DEPENDENT CANCERS” (The Regents of the University of California, priority 2019, published 2022).)
